Assay [1] addresses T1, Thyroid hormone receptor alpha (Homo sapiens, UniProt P10827).
T1 sequence (P10827 whole entry): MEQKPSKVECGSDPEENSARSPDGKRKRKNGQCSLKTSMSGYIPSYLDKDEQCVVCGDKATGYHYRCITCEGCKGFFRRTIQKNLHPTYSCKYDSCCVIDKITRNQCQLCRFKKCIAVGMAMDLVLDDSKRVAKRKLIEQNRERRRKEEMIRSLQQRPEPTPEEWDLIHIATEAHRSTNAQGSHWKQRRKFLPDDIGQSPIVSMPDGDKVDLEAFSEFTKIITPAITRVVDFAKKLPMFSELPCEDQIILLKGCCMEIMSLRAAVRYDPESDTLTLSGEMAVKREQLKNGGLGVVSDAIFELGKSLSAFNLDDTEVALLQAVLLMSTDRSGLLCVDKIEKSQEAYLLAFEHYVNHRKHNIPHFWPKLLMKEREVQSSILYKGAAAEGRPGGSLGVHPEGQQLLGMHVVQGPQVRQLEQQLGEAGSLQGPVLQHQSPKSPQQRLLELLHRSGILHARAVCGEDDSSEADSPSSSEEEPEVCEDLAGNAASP

In assay [2] the target is T2, Thyroid hormone receptor beta (Homo sapiens, UniProt P10828).
T2 sequence (P10828 whole entry): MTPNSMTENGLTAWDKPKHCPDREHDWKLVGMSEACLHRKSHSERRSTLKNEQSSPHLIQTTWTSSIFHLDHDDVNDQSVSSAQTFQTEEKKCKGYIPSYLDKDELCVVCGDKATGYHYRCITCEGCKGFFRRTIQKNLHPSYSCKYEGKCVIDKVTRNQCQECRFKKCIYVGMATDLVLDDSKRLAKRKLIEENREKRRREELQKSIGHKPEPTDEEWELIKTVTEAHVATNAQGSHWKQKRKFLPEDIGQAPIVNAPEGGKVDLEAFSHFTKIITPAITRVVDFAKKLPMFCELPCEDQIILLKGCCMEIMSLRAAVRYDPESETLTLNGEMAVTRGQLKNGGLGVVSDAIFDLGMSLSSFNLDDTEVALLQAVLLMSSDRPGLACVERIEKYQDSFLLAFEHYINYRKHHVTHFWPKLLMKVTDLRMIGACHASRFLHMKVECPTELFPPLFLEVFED
Description: Inhibitory concentration against cloned human thyroid hormone receptor beta 1

For assay [3], the target named is T1, Thyroid hormone receptor alpha. Put plainly: Inhibitory concentration against cloned human thyroid hormone receptor alpha 1.

Take `O=C(O)Cc1cc(Cl)c(Oc2ccc(O)c(Br)c2)c(Cl)c1`: the 50% inhibitory concentration (IC50) amounted to 0.109 µM in assay [1] and 0.009 µM in assay [2].
In the same order, the values of `Cc1c(O)ccc2c(-c3c(Cl)cc(NC(=O)O)cc3Cl)cccc12` are 0.048 µM and 0.0072 µM.
For `O=C(O)CCC(=O)Nc1cc(Cl)c(-c2cccc3c(Br)c(O)ccc23)c(Cl)c1`, in that order: 0.062 µM and 0.022 µM.
In the same order, the values of `O=C(O)CNc1cc(Cl)c(-c2cccc3c(Br)c(O)ccc23)c(Cl)c1` are 0.019 µM and 0.0018 µM.
As for `O=C(O)CCNc1cc(Cl)c(-c2cccc3c(Br)c(O)ccc23)c(Cl)c1`, the IC50 is 0.013 µM in assay [1] and 0.0018 µM in assay [2].
For `O=C(O)C(=O)Nc1cc(Cl)c(-c2cccc3c(Br)c(O)ccc23)c(Cl)c1`, in that order: 0.0054 µM and 0.0003 µM.
Consider `COc1ccc2c(-c3c(Cl)cc(NC(=O)CC(=O)O)cc3Cl)cccc2c1C(C)C`, for which the IC50 in assay [1] amounted to 0.014 µM; in assay [2], 0.0003 µM.
As for `O=C(O)Cc1cc(Cl)c(-c2cccc3cc(O)ccc23)c(Cl)c1`, the values for the IC50 in assay [3] and in assay [2] were 1.54 µM and 0.545 µM, respectively.
Consider `O=C(O)CC(=O)Nc1cc(Cl)c(-c2cccc3c(Br)c(O)ccc23)c(Cl)c1`, for which the IC50 in assay [1] was determined as 0.0043 µM; in assay [2], 0.0003 µM.
In the case of `O=C(O)Cc1cc(Cl)c(-c2cccc3c(Br)c(O)ccc23)c(Cl)c1`, the 50% inhibitory concentration (IC50) in assay [1] came to 0.101 µM; in assay [2] it was 0.013 µM.
Consider `O=C(O)Cc1cc(Cl)c(Oc2ccc(O)cc2)c(Cl)c1`, for which the IC50 in assay [1] turned out to be 3.6 µM; in assay [2], 2.14 µM.
For `O=C(O)Nc1cc(Cl)c(-c2cccc3c(-c4ccccc4)c(O)ccc23)c(Cl)c1`, in that order: 0.125 µM and 0.029 µM.

By IC50 is commonly meant the concentration needed to halve the response being measured.

The values are drawn from ChEMBL document CHEMBL1142857, “A new class of high affinity thyromimetics containing a phenyl-naphthylene core” (Bioorg Med Chem Lett, 2005).
